According to patent US20030004157A1, “Use of NK-1 receptor antagonists against benign prostatic hyperplasia” (priority 2001, published 2003):

Tested on: Beagle dogs
Experiment: 39-week toxicity study in the dog
Type: in vivo
Conditions: 39 weeks; for PROSTATE diff. % vs. control (relative organ weight) / PROSTATE per 100 g BW relative (mean relative organ weight) / TESTES diff. % vs. control (relative organ weight) / TESTES per 100 g BW relative (mean relative organ weight) / PROSTATE absolute (mean absolute organ weight) / TESTES absolute (mean absolute organ weight): male Beagle dogs, oral gavage, SEDDS formulation; for PROSTATE absolute (mean absolute organ weight) / TESTES absolute (mean absolute organ weight): in g (unit assumed); for reduced weights of the prostate gland compared to the control / microscopic changes of the prostate (animals affected): males
Procedure: In a nine-month study four groups of Beagle dogs (4 animals/gender/group; 5-6 months of age at study start) received oral doses (gavage) of 0 (placebo), 6, 20 and 60 mg/kg/d of 2-(3,5-bis-trifluoromethyl-phenyl)-N-methyl-N-(6-morpholin-4-yl-4-o-tolyl-pyridin-3-yl)-isobutyramide as a SEDDS formulation for 39 weeks. The following variables were investigated: clinical signs, body weights, food consumption, ophthalmoscopy before and at the end of the study, electrocardiography, heart rate, toxicokinetics at different time-points, clinical pathology (hematology, biochemistry, urinalysis) in 3-months intervals, necropsy and tissue preservation, organ weights and histopathology.
Mean absolute organ weights were adjusted to 100 g of the mean terminal body weights=>mean relative organ weights.
Mean relative organ weights were compared to the corresponding control=>% deviation.

Compound: Cc1ccccc1-c1cc(N2CCOCC2)ncc1N(C)C(=O)C(C)(C)c1cc(C(F)(F)F)cc(C(F)(F)F)c1 [2-(3,5-bis-trifluoromethyl-phenyl)-N-methyl-N-(6-morpholin-4-yl-4-o-tolyl-pyridin-3-yl)-isobutyramide]
- abnormalities in organ systems other than prostate (6, 20 and 60 mg/kg/d oral): no overt abnormalities in any other organ system
- liver changes (6, 20 and 60 mg/kg/d oral): Mild changes in the liver (hepatocyte hypertrophy with slightly increased organ weights)
- PROSTATE diff. % vs. control (relative organ weight) (6 mg/kg/d): −24%
- PROSTATE per 100 g BW relative (mean relative organ weight) (6 mg/kg/d): 0.059
- TESTES diff. % vs. control (relative organ weight) (6 mg/kg/d): +1%
- TESTES per 100 g BW relative (mean relative organ weight) (6 mg/kg/d): 0.1803
- PROSTATE absolute (mean absolute organ weight) (6 mg/kg/d): 8.066
- TESTES absolute (mean absolute organ weight) (6 mg/kg/d): 24.577
- PROSTATE diff. % vs. control (relative organ weight) (20 mg/kg/d): −37%
- PROSTATE per 100 g BW relative (mean relative organ weight) (20 mg/kg/d): 0.049
- TESTES diff. % vs. control (relative organ weight) (20 mg/kg/d): +6%
- TESTES per 100 g BW relative (mean relative organ weight) (20 mg/kg/d): 0.1804
- PROSTATE absolute (mean absolute organ weight) (20 mg/kg/d): 6.413
- TESTES absolute (mean absolute organ weight) (20 mg/kg/d): 23.432
- PROSTATE diff. % vs. control (relative organ weight) (60 mg/kg/d): −58%
- PROSTATE per 100 g BW relative (mean relative organ weight) (60 mg/kg/d): 0.033
- TESTES diff. % vs. control (relative organ weight) (60 mg/kg/d): +9%
- TESTES per 100 g BW relative (mean relative organ weight) (60 mg/kg/d): 0.1853
- PROSTATE absolute (mean absolute organ weight) (60 mg/kg/d): 4.429
- TESTES absolute (mean absolute organ weight) (60 mg/kg/d): 24.753
- reduced weights of the prostate gland compared to the control (6 mg/kg/d oral): insignificant trend
- microscopic changes of the prostate (animals affected) (20 mg/kg/d oral): most
- reduced weights of the prostate gland compared to the control (20 mg/kg/d oral): 37%
- microscopic changes of the prostate (animals affected) (60 mg/kg/d oral): all males
- reduced weights of the prostate gland compared to the control (60 mg/kg/d oral): 58%
